Measurements taken from patent publication US20250188506A1, “ANTICOAGULANT HEPARIN-CHONDROITIN CHIMERIC SACCHARIDE MOLECULE AS WELL AS PREPARATION METHOD AND APPLICATION THEREOF” (SHANDONG UNIVERSITY, priority 2023, published 2025).

Experiments:
Xa factor = details: commercially available comparator, stated in advantages section; cited from earlier work
PF4 = target: T1, PF4 (Homo sapiens, UniProt P02776)
T1 sequence (P02776 32-101): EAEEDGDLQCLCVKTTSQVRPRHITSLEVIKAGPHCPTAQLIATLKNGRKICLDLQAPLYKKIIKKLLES

Compound: CO[C@H]1O[C@H](COS(=O)(=O)O)[C@@H](O[C@@H]2O[C@@H](C(=O)O)[C@@H](O[C@H]3O[C@H](COS(=O)(=O)O)[C@@H](O[C@@H]4O[C@H](C(=O)O)[C@@H](O[C@H]5O[C@H](COS(=O)(=O)O)[C@@H](O)[C@H](O)[C@H]5NS(=O)(=O)O)[C@H](O)[C@H]4O)[C@H](OS(=O)(=O)O)[C@H]3NS(=O)(=O)O)[C@H](O)[C@H]2OS(=O)(=O)O)[C@H](O)[C@H]1NS(=O)(=O)O [fondaparinux, fondaparinux sodium]
- neutralization of activity against the Xa factor by protamine (in words) (Xa factor): almost completely not neutralized
- average particle size of compounds formed with PF4 (PF4): 61.57 nm
